According to ChEMBL document CHEMBL1275543, “Proposed MIC and disk diffusion microbiological cutoffs and spectrum of activity of retapamulin, a novel topical antimicrobial agent” (2008):
Values after ≈ are worked out from the molar mass of the structure shown.

Legend:
Type in all cases: functional
Streptococcus viridans = test: Antibacterial activity against Streptococcus viridans
Staphylococcus [1] = test: Antibacterial activity against methicillin sensitive coagulase-negative Staphylococcus
[2] = Antibacterial activity against beta-hemolytic Streptococcus group G; settings: Streptococcus sp. 'group G'
[3] = Antibacterial activity against gram-negative Bacilli species
Staphylococcus aureus [4] = test: Antibacterial activity against vancomycin intermediate Staphylococcus aureus
[5] = Antibacterial activity against beta-hemolytic Streptococcus group C; settings: Streptococcus sp. 'group C'
Streptococcus agalactiae = test: Antibacterial activity against Streptococcus agalactiae
Staphylococcus [6] = test: Antibacterial activity against methicillin resistant coagulase-negative Staphylococcus
Streptococcus pyogenes [7] = test: Antibacterial activity against Streptococcus pyogenes
Staphylococcus aureus [8] = test: Antibacterial activity against methicillin resistant Staphylococcus aureus
Staphylococcus aureus [9] = test: Antibacterial activity against methicillin sensitive Staphylococcus aureus
Enterococcus = test: Antibacterial activity against Enterococcus species
Staphylococcus aureus [10] = test: Antibacterial activity against Staphylococcus aureus
Staphylococcus [11] = test: Antibacterial activity against coagulase-negative Staphylococcus
Staphylococcus [12] = test: Ratio of MBC90 to MIC90 for coagulase-negative Staphylococcus
Staphylococcus aureus [13] = test: Ratio of MBC90 to MIC90 for Staphylococcus aureus
Streptococcus pyogenes [14] = test: Ratio of MBC90 to MIC90 for Streptococcus pyogenes

| Compound | MIC50 (Streptococcus viridans) [µg/mL] | MIC90 (Streptococcus viridans) [µg/mL] | MIC50 (Staphylococcus [1]) [µg/mL] | MIC90 (Staphylococcus [1]) [µg/mL] | MIC50 [2] [µg/mL] | MIC90 [2] [µg/mL] | MIC50 [3] [µg/mL] | MIC90 [3] [µg/mL] | MIC50 (Staphylococcus aureus [4]) [µg/mL] | MIC90 (Staphylococcus aureus [4]) [µg/mL] | MIC50 [5] [µg/mL] | MIC90 [5] [µg/mL] | MIC50 (Streptococcus agalactiae) [µg/mL] | MIC90 (Streptococcus agalactiae) [µg/mL] | MIC50 (Staphylococcus [6]) [µg/mL] | MIC90 (Staphylococcus [6]) [µg/mL] | MIC50 (Streptococcus pyogenes [7]; Streptococcus pyogenes) [µg/mL] | MIC90 (Streptococcus pyogenes [7]; Streptococcus pyogenes) [µg/mL] | MIC50 (Staphylococcus aureus [8]) [µg/mL] | MIC90 (Staphylococcus aureus [8]) [µg/mL] | also measured |
| --- | --- | --- | --- | --- | --- | --- | --- | --- | --- | --- | --- | --- | --- | --- | --- | --- | --- | --- | --- | --- | --- |
| C/C(=C\C(=O)OCCCCCCCCC(=O)O)C[C@@H]1OC[C@H](C[C@@H]2O[C@H]2[C@@H](C)[C@H](C)O)[C@@H](O)[C@H]1O [MUPIROCIN] | 1 (≈ 2 µM) | 2 (≈ 3.99 µM) | 0.25 (≈ 0.499 µM) | 32 (≈ 63.9 µM) | 0.25 (≈ 0.499 µM) | 0.5 (≈ 0.999 µM) | > 32 | > 32 | 0.25 (≈ 0.499 µM) | 1 (≈ 2 µM) | 0.5 (≈ 0.999 µM) | 1 (≈ 2 µM) | 1 (≈ 2 µM) | 2 (≈ 3.99 µM) | 0.25 (≈ 0.499 µM) | > 32 | 0.12 (≈ 0.24 µM) | 0.25 (≈ 0.499 µM) | 0.25 (≈ 0.499 µM) | 2 (≈ 3.99 µM) | MIC50 (Staphylococcus aureus [9]): 0.25 µg/mL (≈ 0.499 µM); MIC90 (Staphylococcus aureus [9]): 0.5 µg/mL (≈ 0.999 µM); MIC50 (Enterococcus): 32 µg/mL (≈ 63.9 µM); MIC90 (Enterococcus): > 32 µg/mL |
| C=C[C@]1(C)C[C@@H](OC(=O)CS[C@@H]2C[C@H]3CC[C@@H](C2)N3C)[C@]2(C)[C@H](C)CC[C@]3(CCC(=O)[C@H]32)[C@@H](C)[C@@H]1O [RETAPAMULIN] | 0.06 (≈ 0.116 µM) | 0.25 (≈ 0.483 µM) | 0.12 (≈ 0.232 µM) | 4 (≈ 7.73 µM) | 0.03 (≈ 0.0579 µM) | 0.06 (≈ 0.116 µM) | 256 (≈ 494 µM) | > 512 | 0.06 (≈ 0.116 µM) | 0.12 (≈ 0.232 µM) | 0.016 (≈ 0.0309 µM) | 0.03 (≈ 0.0579 µM) | 0.03 (≈ 0.0579 µM) | 0.03 (≈ 0.0579 µM) | 0.06 (≈ 0.116 µM) | 0.12 (≈ 0.232 µM) | 0.016 (≈ 0.0309 µM) | 0.03 (≈ 0.0579 µM) | 0.12 (≈ 0.232 µM) | 0.12 (≈ 0.232 µM) | Activity (Staphylococcus aureus [10]): 128 µg/mL; MBC (Staphylococcus [11]): 64 µg/mL (≈ 124 µM); MIC [5]: 0.016 µg/mL (≈ 0.0309 µM); Ratio (Staphylococcus [12]): 512; Activity (Streptococcus pyogenes [7]): 16 µg/mL; MIC (Streptococcus pyogenes [7]; Streptococcus pyogenes): 0.016 µg/mL (≈ 0.0309 µM); Ratio (Staphylococcus aureus [13]): 1024; Ratio (Streptococcus pyogenes [14]): 256; MIC50 (Staphylococcus aureus [9]): 0.12 µg/mL (≈ 0.232 µM); MIC90 (Staphylococcus aureus [9]): 0.12 µg/mL (≈ 0.232 µM); MIC50 (Enterococcus): 64 µg/mL (≈ 124 µM); MIC90 (Enterococcus): 128 µg/mL (≈ 247 µM) |
